Patent US11192949B2, “HIV-1 vaccine” (CASE WESTERN RESERVE UNIVERSITY, priority 2013, dated 2021)
Like-named read-outs stand apart in the source and are kept apart here.

What was measured:
[1] = test system: A74 passage control week 21 virus (PC.21); assay: Drug susceptibility assay (reverse transcriptase activity) in U87.CD4.CCR5 cells, passage control virus PC.21; type: cell-based, HIV-1
Method: (§1) (A) Virus A74 derived from passage control week 21 (PC.21) and MVC treated week 21 (MVC.21) cultures were used to infect U87.CD4.CCR5 cells in the presence of increasing concentrations of MVC. (B) These viruses were also used to infect U87.CD4.CCR5 cells in the presence of maximal inhibitory concentrations (10 μM) of CCR5 antagonists MVC and TAK-779 and fusion inhibitor enfuvirtide (T20). Reverse transcriptase activity was measured 7 days post infection. Percent infection was calculated relative to the no drug control for each virus. Data shown are means of triplicates with error bars representing standard deviations.
(§2) FIG. 15 illustrates a plot showing sensitivity to attachment inhibitor BMS-806. […] Reverse transcriptase activity was measured five days post infection and percent inhibition calculated based on the no drug condition. Data represents means of triplicates with standard deviations.
(§3) U87.CD4.CCR5 cells were plated in 96-well format (1×10^4 cells/well) for 24 hr. Cells were then treated for 2 hr with 5-fold dilutions of MVC (100 μM to 2×10^−6 μM) and then infected at a multiplicity of infection (MOI) of 0.001 infectious units (IU)/cell. All assays were performed in triplicate. After 24 hr, cells were washed in 1×PBS to remove free virus and media containing the appropriate MVC drug dilutions was added. Viral replication was measured daily by radio-labeled reverse transcriptase assay using a Packard beta counter to quantify counts per minute (cpm). Drug sensitivity curves were generated using non-linear regression curve fitting features of GraphPad Prism 5 software.

[2] = test system: A74 MVC treated week 21 virus (MVC.21); assay: Drug susceptibility assay (reverse transcriptase activity) in U87.CD4.CCR5 cells, MVC selected virus MVC.21; type: cell-based, HIV-1
Method: as §1, §2, §3

[3] = test system: gp120 chimeric virus clone MVC.21.123
Method: as §3
(§4) Gp120 chimeric viruses were cloned into an NL4-3 backbone from passage control and virus passaged in the presence of MVC escalations using the yeast homologous recombination-gap repair technique. From this point forward, the viruses and clones are referred to as […] (passage control) or MVC (maraviroc selected). 21 (number of passages). 1 (clone number) or PC.21.1 or MVC.21.1. The gp120 regions of the PC.1 (starting virus), PC.21 and MVC.21 viruses were PCR amplified using primers F_gp120 5′-[…]-3′ (SEQ ID NO: 1) and B_gp120 5′-[…]-3′ (SEQ ID NO: 2). Briefly, these gp120 PCR products were then co-transformed with a SacI-linearized pREC_NFL_Δgp120/URA3 into Saccharomyces cerevisiae MYA-906 cells (ATCC). Following homologous recombination, plasmids were extracted from the yeast cells and transformed into electrocompetent Escherichia coli Stbl4 cells (Invitrogen). Individual bacterial colonies were grown and plasmids were extracted using Qiagen miniprep kits. Chimeric pREC_NFL_gp120 plasmids were co-transfected into 293T cells (3×10^4 cells/well) along with the complementing plasmid pCMV_cplt using Fugene 6 reagent (Promega, Madison, Wis.) as described. Heterodiploid virus particles containing one copy of the NFL and cplt HIV-1 RNAs represent approximately half of the virus derived from 293T cell transfections and can be propagated on U87.CD4.CCR5 cells to produce replication competent virus with a complete virus genome. Virus stocks of each clone were titered as described above. The DNA sequences obtained in the course of this work were deposited in the GenBank/EMBL/DDBJ databases under the following accession numbers: env(gp120) (JX993942-JX993981).

[4] = test system: gp120 chimeric virus clone MVC.21.122; details: U87.CD4.CCR5
Method: as §3, §4

[5] = test system: gp120 chimeric virus clone MVC.21.128
Method: as §3, §4

[6] = test system: gp120 chimeric virus clone PC.1.1
Method: as §3, §4

[7] = test system: gp120 chimeric virus clone PC.21.109
Method: as §3, §4

[8] = test system: gp120 chimeric virus clone MVC.21.119
Method: as §3, §4

[9] = test system: gp120 chimeric virus clone PC.21.111
Method: as §3, §4

[10] = test system: A74 MVC treated week 21 virus (MVC.21); assay: Multiple cycle drug sensitivity assay in PBMC, virus MVC.21; type: cell-based, HIV-1
Method: (§5) U87.CD4.CCR5 cells were obtained through the AIDS Research and Reference Reagent Program, Division of AIDS, NIAID, NIH. U87.CD4.CCR5 cells were maintained in DMEM supplemented with 10% FBS, 100 μg/mL penicillin/streptomycin, 300 μg/mL G418, and 1 μg/mL puromycin (Invitrogen, Carlsbad, Calif.). 293T cells were cultured in DMEM supplemented with 10% FBS and 100 μg/mL penicillin/streptomycin. Peripheral blood mononuclear cells (PBMCs) were obtained from whole blood extracted from a HIV negative donor by Ficoll-Paque centrifugation. PBMC cultures were stimulated with 1 μg/mL phytohemagglutinin (PHA; Gibco, Carlsbad, Calif.) for 48 hrs in RPMI 1640 medium (Gibco) containing 10% FBS and 100 μg/mL penicillin/streptomycin. Cells were maintained thereafter in RPMI 1640 medium with 10% FBS, 100 μg/mL penicillin/streptomycin, and […] interleukin-2 (IL-2; Gibco).
(§6) All assays were performed in triplicate.
(§7) Therefore, multiple cycle drug sensitivity assays were performed in peripheral blood mononuclear cells (PBMC) isolated from an HIV negative donor with PC.21 and MVC.21.

[11] = test system: A74 passage control week 21 virus (PC.21); assay: Multiple cycle drug sensitivity assay in PBMC, virus PC.21; type: cell-based, HIV-1
Method: as §5, §6, §7

B6.MVC.21 virus = details: U87.CD4.CCR5
Method: as §3
(§8) Reverse transcriptase (RT) activity was monitored in the cell-free supernatant for each weekly passage and inhibitor concentration increased when RT activity reached 2-fold over background.

B6.PC.21 virus = details: U87.CD4.CCR5
Method: as §3, §8

[12] = test system: gp120 chimeric virus clone MVC.21.132 (A74.MVC.21.132)
Method: as §3, §4
For multiple replication cycle drug susceptibility assays, U87.CD4.CCR5 cells were plated as above and pretreated with 5-fold dilutions of MVC (100 μM to 2×10^−6 μM). Cells were infected at an MOI of 0.001 IU/cell with NL4-3/gp120 chimeric virus in quadruplicate. […] Reverse transcriptase activity in supernatant was monitored as previously described on days 4 through 7 post infection.

[13] = test system: HIV-1 subtype C primary isolate C8; details: read-out: mean IC50; U87.CD4.CCR5; virus C8
Method: as §3
(§9) We assessed “intrinsic” susceptibilities of HIV-1 subtype A, B, and C primary isolates to maraviroc. Multiple cycle drug susceptibility assays were performed in U87.CD4.CCR5 cells in the presence of 5-fold decreasing concentrations of MVC starting at 100 μM.

[14] = test system: HIV-1 subtype B primary isolate B6; details: read-out: mean IC50; U87.CD4.CCR5; virus B6
Method: as §3, §9

[15] = test system: HIV-1 subtype A primary isolate A74; assay: Multiple cycle drug sensitivity assay in PBMC, virus A74; type: cell-based
[16] = test system: HIV-1 subtype A primary isolate A74; details: U87.CD4.CCR5; virus A74
[17] = test system: subtype B patient-derived MVC resistant virus R3; details: clone R3; multiple cycle conditions
Method: For multiple replication cycle drug susceptibility assays, U87.CD4.CCR5 cells were plated as above and pretreated with 5-fold dilutions of MVC (100 μM to 2×10^−6 μM). Cells were infected at an MOI of 0.001 IU/cell with NL4-3/gp120 chimeric virus in quadruplicate. After 24 hours, viral inoculums were removed and replaced with media containing the appropriate MVC dilutions. Reverse transcriptase activity in supernatant was monitored as previously described on days 4 through 7 post infection.

[18] = test system: gp120 chimeric virus clone MVC.21.122.425K
Method: as §3

[19] = test system: A74.MVC.21.132 psuedovirus
Method: (§10) For single replication cycle drug susceptibility assays, U87.CD4.CCR5 cells in 96-well format (1×10^4 cells/well) were pretreated for 2 hours with 10-fold dilutions of MVC (1 μM to 1×10^−7 μM) then infected in triplicate with luciferase encoding psuedovirus. After 48 hours, supernatant was removed and cells were lysed using 50 μL Glo lysis buffer (Promega, Madison, Wis.). Cells were lysed for 20 minutes at room temperature, transferred to white polystyrene 96 well plates, and read with a PerkinElmer VICTOR plate reader using injectors to introduce 50 μL Bright Glo reagent per well (Promega, Madison, Wis.). Luciferase activity was measured as relative light units (RLU).

[20] = test system: subtype B patient-derived MVC resistant virus R3; details: clone R3; single cycle conditions
Method: as §10

[21] = test system: CC1/85 MVC-resistant virus containing the T316 and V323 V3 loop mutations; details: 1 μM MVC; cited from earlier work
[22] = highest MVC concentrations (4, 20, 100 μM)

COc1ccnc2[nH]cc(C(=O)C(=O)N3CCN(C(=O)c4ccccc4)C[C@H]3C)c12 [BMS-806]
inhibition ([1]; highest concentrations tested (50 and 5 μM), PC.21): 46% | inhibition ([2]; highest concentrations tested (50 and 5 μM), MVC.21): 98%

Cc1ccc(-c2ccc3c(c2)C=C(C(=O)Nc2ccc(C[N+](C)(C)C4CCOCC4)cc2)CCC3)cc1.[Cl-] [TAK-779]
inhibition of virus replication ([1]; 10 μM (IC99 inhibitory concentration), PC.21): completely blocked | inhibition of virus replication ([2]; 10 μM (IC99 inhibitory concentration), MVC.21): cross resistance

Maraviroc [MVC]
IC50 fold change relative to input gp120 clone PC.1.1 [3]: 11 fold | MPI [3]: > 95% | IC50 [4]: 0.9 nM | IC50 fold change relative to input gp120 clone PC.1.1 [5]: 40 fold | MPI [5]: > 95% | IC50 ([5]; U87.CD4.CCR5): 37 nM | sensitivity to MVC inhibition [6]: sensitive | sensitivity to MVC inhibition [7]: sensitive | inhibition (RT activity) [7, 22]: 99.9% | IC50 fold change relative to input gp120 clone PC.1.1 [8]: 40 fold | MPI [8]: > 95% | IC50 ([8]; U87.CD4.CCR5): 34 nM | inhibition (RT activity) [8, 22]: 97% | sensitivity to MVC inhibition [9]: sensitive | IC50 [10]: 300 nM | MPI [10]: 73% | IC50 ([1]; virus PC.21): 1 nM | MPI (maximal percent inhibition) ([1]; virus PC.21): 100% | IC50 [11]: 5 nM | MPI [11]: 98% | IC50 ([11]; read-out: IC50): 6 nM | IC50 (B6.MVC.21 virus; B6 week 21 inhibitor treated culture): 14 nM | MPI (maximal percent inhibition) (B6.MVC.21 virus; virus B6.MVC.21): 99% | IC50 (B6.PC.21 virus; B6 week 21 control culture): 8 nM | MPI (maximal percent inhibition) (B6.PC.21 virus; virus B6.PC.21): 100% | rightward shift in IC50 compared with MVC sensitive clone A74.PC.21.109 ([12]; A74.MVC.21.132, multiple replication cycle conditions): 17 fold | IC50 fold change relative to input gp120 clone PC.1.1 ([12]; clone MVC.21.132): 10 fold | MPI ([12]; clone MVC.21.132): > 95% | IC50 ([12]; clone MVC.21.132, U87.CD4.CCR5): 8.8 nM | IC50 [13]: 2 nM | IC50 [14]: 2 nM | IC50 [15]: 5 nM | MPI [15]: 100% | IC50 [16]: 10 nM | MPI (maximal percent inhibition) [16]: 99% | IC50 ([2]; virus MVC.21): 216 nM | MPI (maximal percent inhibition) ([2]; virus MVC.21, highest drug concentration tested 100 μM): 81% | maximal percent inhibition (MPI) [17]: 61% | shift in IC50 relative to MVC.21.122 [18]: 36 fold | IC50 ([18]; U87.CD4.CCR5): 33 nM | resistance in single cycle assay [19]: resistance could not be detected | maximal percent inhibition (MPI) [20]: 56% | level of replication in the presence of drug as compared to the absence of drug [21]: 25%
